How the values were obtained:
in vitro = settings: human, liver microsomes
[1] = Plasma clearance in rat at 5 mg/kg, iv administered as single dose; format: ADME, organism-based; set-up: dose 5 mg/kg, route intravenous
[2] = Octanol-water distribution coefficient, log D at pH 7.4; format: physicochemical
[3] = Elimination half life in rat at 5 mg/kg, iv administered as single dose; format: ADME, organism-based; set-up: dose 5 mg/kg, route intravenous; settings: in vivo, read-out: beta t1/2 (converted)
[4] = Volume of distribution in rat at 5 mg/kg, iv administered as single dose; format: ADME, organism-based; set-up: dose 5 mg/kg, route intravenous; settings: in vivo

half-life (in vitro)	clearance [1]	logD [2]	half-life [3]	Vd [4]	Structure (SMILES)
> 2 h					Cc1ccc(C(Oc2cccc(Cl)c2Cl)C2CCNCC2)cn1 (centres undefined)
> 2 h	180 mL/min/kg	1.2	2 h	33 L/kg	Clc1cccc(OC(c2cccnc2)C2CCNCC2)c1Cl (single isomer, unassigned; enantiomer 1)
> 2 h		0.9			Clc1cccc(OC(c2ccccn2)[C@H]2CCNC2)c1Cl (some centres undefined)

Structure (SMILES)	half-life (in vitro)	clearance [1]	logD [2]	half-life [3]	Vd [4]
CNCC[C@H](Oc1cccc2ccccc12)c1cccs1 [DULOXETINE]	> 2 h				

Source: ChEMBL document CHEMBL1151858, “4-Piperidines and 3-pyrrolidines as dual serotonin and noradrenaline reuptake inhibitors: design, synthesis and structure-activity relationships” (Bioorg Med Chem Lett, 2009)
